Read-outs that look alike come from different tables or passages of the source.
Assays:
[1] = for CT Scan - Small Airways Disease, Change from Baseline / CT Scan - Small Airways Disease, Result / CT Scan Parametric Imaging - Emphysema, Change from Baseline / CT Scan Parametric Imaging - Emphysema, Result / CT Scan - Air Trapping Index -856 HU, Change from Baseline / CT Scan - Air Trapping Index -856 HU, Result: Week 16; for CT Scan - Air Trapping Index -856 HU, Change from Baseline: first Change column under heads Inspiratory | Expiratory; for CT Scan - Air Trapping Index -856 HU, Result: first Result column under heads Inspiratory | Expiratory
Description: (§1) All eligible participants received inspiratory and expiratory CT scans at Baseline and at Week 16 to assess for changes in mucus plugs and airway architecture (e.g., changes in airway wall thickness).

[2] = across the dose groups at various time-points
[3] = for CT Scan - Mucus Score, Change from Baseline / CT Scan - Mucus Score, Result: Week 16
Description: Mucus dysfunction, a central pathology in patients with COPD, is characterized by excess mucus production, hypersecretion, and reduced clearance, leading to accumulation in the airways as mucus plugs. Computed tomography (CT) scans of individuals with COPD can be assessed by a physician or clinician trained in lung imaging. Mucus plug scoring is assigned based on the number of lung segments with mucus plugs, ranging from 0 (no mucus plugs seen on CT scan) to 20 (all lung segments with mucus plugs).
as §1
A total of completed week 16 underwent at CT scan with mucus plug scoring.

SMILES: CCCN[C@@H]1CCc2nc(N)sc2C1 [Dexpramipexole, (6R)-2-amino-4,5,6,7-tetrahydro-6-(propylamino)benzothiazole]
- CT Scan - Small Airways Disease, Change from Baseline ([1]; Subject ID 10001-001-0001): −7.12
- CT Scan - Small Airways Disease, Result ([1]; Subject ID 10001-001-0001): 25.72
- CT Scan Parametric Imaging - Emphysema, Change from Baseline ([1]; Subject ID 10001-001-0001): 2.41
- CT Scan Parametric Imaging - Emphysema, Result ([1]; Subject ID 10001-001-0001): 36.28
- CT Scan - Air Trapping Index -856 HU, Change from Baseline ([1]; Subject ID 10001-001-0001): −0.29%
- CT Scan - Air Trapping Index -856 HU, Result ([1]; Subject ID 10001-001-0001): 49.57%
- CT Scan - Small Airways Disease, Change from Baseline ([1]; Subject ID 10001-008-0002): 2.18
- CT Scan - Small Airways Disease, Result ([1]; Subject ID 10001-008-0002): 51.14
- CT Scan Parametric Imaging - Emphysema, Change from Baseline ([1]; Subject ID 10001-008-0002): −0.73
- CT Scan Parametric Imaging - Emphysema, Result ([1]; Subject ID 10001-008-0002): 35.88
- CT Scan - Air Trapping Index -856 HU, Change from Baseline ([1]; Subject ID 10001-008-0002): 0.57%
- CT Scan - Air Trapping Index -856 HU, Result ([1]; Subject ID 10001-008-0002): 68.06%
- CT Scan - Small Airways Disease, Change from Baseline ([1]; Subject ID 10001-010-0005): −3.80
- CT Scan - Small Airways Disease, Result ([1]; Subject ID 10001-010-0005): 39.08
- CT Scan Parametric Imaging - Emphysema, Change from Baseline ([1]; Subject ID 10001-010-0005): 0.16
- CT Scan Parametric Imaging - Emphysema, Result ([1]; Subject ID 10001-010-0005): 12.11
- CT Scan - Air Trapping Index -856 HU, Change from Baseline ([1]; Subject ID 10001-010-0005): −2.18%
- CT Scan - Air Trapping Index -856 HU, Result ([1]; Subject ID 10001-010-0005): 29.57%
- CT Scan - Small Airways Disease, Change from Baseline ([1]; Subject ID 10001-022-0001): −4.12
- CT Scan - Small Airways Disease, Result ([1]; Subject ID 10001-022-0001): 46.36
- CT Scan Parametric Imaging - Emphysema, Change from Baseline ([1]; Subject ID 10001-022-0001): −4.75
- CT Scan Parametric Imaging - Emphysema, Result ([1]; Subject ID 10001-022-0001): 8.59
- CT Scan - Air Trapping Index -856 HU, Change from Baseline ([1]; Subject ID 10001-022-0001): −11.40%
- CT Scan - Air Trapping Index -856 HU, Result ([1]; Subject ID 10001-022-0001): 27.88%
- CT scoring for small airway disease ([1]; all patients): All patients showed an improvement in scoring
- CT scoring for Air Trapping, change ([1]; one patient): −11.40
- CT scoring for emphysema, decrease ([1]; one patient): 4.75 points
- CT scoring for small airway disease, improvement ([1]; one patient): 7.12 points
- placebo-corrected change from baseline in pre-BD FEV1 [2]: clinically meaningful
- CT Scan - Mucus Score, Change from Baseline ([3]; Subject ID 10001-001-0001): 0.00
- CT Scan - Mucus Score, Result ([3]; Subject ID 10001-001-0001): 1.00
- CT Scan - Mucus Score, Change from Baseline ([3]; Subject ID 10001-001-0002): 0.00
- CT Scan - Mucus Score, Result ([3]; Subject ID 10001-001-0002): 0.00
- CT Scan - Mucus Score, Change from Baseline ([3]; Subject ID 10001-008-0002): 3.00
- CT Scan - Mucus Score, Result ([3]; Subject ID 10001-008-0002): 3.00
- CT Scan - Mucus Score, Change from Baseline ([3]; Subject ID 10001-010-0005): 0.00
- CT Scan - Mucus Score, Result ([3]; Subject ID 10001-010-0005): 0.00
- CT Scan - Mucus Score, Change from Baseline ([3]; Subject ID 10001-022-0001): −4.00
- CT Scan - Mucus Score, Result ([3]; Subject ID 10001-022-0001): 0.00
- CT Scan - Mucus Score, Change from Baseline ([3]; Subject ID 10001-022-0006): 3.00
- CT Scan - Mucus Score, Result ([3]; Subject ID 10001-022-0006): 6.00
- mucus plug score ([3]; one patient, week 16, score of 4 at baseline): 0
